Values of other authors, collected in patent publication US20230190754A1, “Therapeutic combinations for the treatment of Progressive Fibrosing interstitial lung diseases” (Boehringer Ingelheim International GmbH, priority 2021, published 2023).

Tested on: human lung fibroblasts
Details: combination with nintedanib; cited from earlier work

[O-][S@+]1CCc2nc(N3CCC(c4ncc(Cl)cn4)CC3)nc(NC3(CO)CCC3)c21 [Comp. of form. III]
Effect on fibroblast proliferation (in words): synergistic overadditive effect
